PMC5935597 (Bioorganic & medicinal chemistry, 2018)
Values after ≈ are worked out from the molar mass of the structure shown. Read-outs that look alike come from different tables or passages of the source.

How the values were obtained:
[1] = test system: C. neoformans (H99 strain); conditions: read-out: C. neoformans (H99 strain) IC50; cited from earlier work
[2] = test system: H. capsulatum; conditions: read-out: H. capsulatum IC50; cited from earlier work
[3] = test system: Aspergillus fumigatus; conditions: cited from earlier work
[4] = test system: Candida albicans; conditions: cited from earlier work
[5] = test system: C. neoformans (H99 strain); test: microbe, parasite or virus in culture; format: cell-based, Cryptococcus neoformans
[6] = test system: H. capsulatum; format: cell-based, Histoplasma capsulatum; conditions: for times more active than 41F5 against H. capsulatum: relative to 41F5; for activity against H. capsulatum evaluated comparatively at pH 5 and pH 7: pH 5 versus pH 7 (SM-S.2)
[7] = test system: Blastomyces dermatitidis; conditions: cited from earlier work

O=C(CCC1CCCCC1)Nc1ncc(Cc2cccc3ccccc23)s1 [A]
IC50 [1]: > 10000 nM
IC50 [2]: 400 nM

Cc1ccc(Oc2ccccc2-c2csc(N=C3NCCCN3)n2)c(C)c1 [Abafungin]
activity against Aspergillus fumigatus [3]: active
activity against Candida albicans [4]: active

O=C(Nc1ncc(Cc2ccccc2)s1)C1CCCCC1 [B]
IC50 [2]: 1600 nM

O=C(CCC1CCCCC1)Nc1ncc(Cc2ccccc2)s1 [C]
IC50 [1]: > 10000 nM
IC50 [2]: 700 nM

O=C(Nc1ncc(Cc2cccc3ccsc23)s1)C1CCCCC1 [Compound 17b]
times more active than 41F5 against C. neoformans [5]: ~ 2 times
times more active than 41F5 against H. capsulatum [6]: ~ 2 times

O=C(CCC1CCCCC1)Nc1ncc(Cc2cccc3nsnc23)s1 [Compound 20a]
activity against C. neoformans evaluated comparatively at pH 5 and pH 7 [5]: No significant differences
activity against H. capsulatum evaluated comparatively at pH 5 and pH 7 [6]: No significant differences

O=C(CCC1CCCCC1)Nc1ncc(Cc2cccc3sccc23)s1 [Compound 22a]
times more active than 41F5 against H. capsulatum [6]: ~ 2 times

O=C(Nc1ncc(Cc2cccc3sccc23)s1)C1CCCCC1 [Compound 22b]
times more active than 41F5 against C. neoformans [5]: ~ 2 times
IC50 ([5]; Cryptococcus neoformans, read-out: C. neoformans (H99 strain) IC50 [±SD]): 370 nM
MIC ([5]; Cryptococcus neoformans, read-out: C. neoformans (H99 strain) MIC): 1.25 µM (≈ 0.446 µg/mL)
times more active than 41F5 against H. capsulatum [6]: ~ 2 times

O=C(CCC1CCCCC1)Nc1ncc(Cc2csc3ccccc23)s1 [Compound 23a]
times more active than 41F5 against H. capsulatum [6]: ~ 2 times

O=C(Nc1ncc(Cc2cccc3c2CCC3)s1)C1CCCCC1 [Compound 26b]
times more active than 41F5 against C. neoformans [5]: ~ 2 times
times more active than 41F5 against H. capsulatum [6]: ~ 2 times

O=C(CCC1CCCCC1)Nc1ncc(Cc2ccnc3ccccc23)s1 [Compound 28a]
activity against C. neoformans evaluated comparatively at pH 5 and pH 7 [5]: No significant differences
activity against H. capsulatum evaluated comparatively at pH 5 and pH 7 [6]: No significant differences

O=C(CCC1CCCCC1)Nc1ncc(Cc2ccccn2)s1 [Compound 29a]
activity against C. neoformans evaluated comparatively at pH 5 and pH 7 [5]: No significant differences
activity against H. capsulatum evaluated comparatively at pH 5 and pH 7 [6]: No significant differences

O=C(Nc1ncc(Cc2cccnc2)s1)C1CCCCC1 [Compound 31]
activity against C. neoformans evaluated comparatively at pH 5 and pH 7 [5]: No significant differences
activity against H. capsulatum evaluated comparatively at pH 5 and pH 7 [6]: No significant differences

O=C(CCC1CCCCC1)Nc1ncc(Cc2ccncc2)s1 [Compound 32a]
activity against C. neoformans evaluated comparatively at pH 5 and pH 7 [5]: No significant differences
activity against H. capsulatum evaluated comparatively at pH 5 and pH 7 [6]: No significant differences

O=C(c1cnc(NC(=O)C2CCCCC2)s1)c1cccc2ccccc12 [Compound 36b]
times more active than 41F5 against H. capsulatum [6]: ~ 2 times

O=C(Nc1ncc(Cc2cccc3ccccc23)s1)C1CCCCC1 [Compound 41F5, N-[5-(1-naphthalenylmethyl)-2-thiazolyl]cyclohexanecarboxamide]
IC50 [1]: 400 nM
activity against Aspergillus fumigatus [3]: inactive
activity against Candida albicans [4]: inactive
activity against Blastomyces dermatitidis [7]: inactive
IC50 [2]: 400 nM
